Measured values published in patent US4156011A, “Sulphur- and oxygen-containing diaryl compounds” (priority 1974, dated 1979).
Where two headings read alike, the source gives them in different places.

Key:
[1] = tested on: blood platelet aggregation; experiment: Anti-aggregation action in rats (graded / in words); format: in vivo; set-up: key to Anti-aggregation action: -: zero activity; +: significant activity; ++: intense activity; +++: very intense activity
Excerpt: (a) by collagen: the inhibition of aggregation (which corresponds to the % transmission), the latency period and the speed; and
(b) by ADP: the inhibition of aggregation (that is to say the % transmission).

[2] = Hypo-lipidaemic and hypo-cholesterolaemic action of other products (Table V); format: in vivo, rats; settings: for change in vivo at 50 mg/kg: Rattus norvegicus, 72 h, oral 50 mg/kg for 3 days
Excerpt: The results of the anti-aggregation test and of the hypo-[…] action and hypo-cholesterolaemic action tests of other products of the invention have been […] Table V which follows, the code used being the following (for each dose shown): […]

[3] = in vivo; settings: mouse, oral, female mice
Experimental: (§1) In female mice, the LD-50 on oral administration is 2,050 mg/kg. In male rats, the LD-0, on oral administration, is greater than 600 mg/kg.

[4] = format: in vivo; settings: oral, male rats
Experimental: as §1

[5] = tested on: stomach and duodenum; experiment: Gastric tolerance in fasting rats; format: in vivo
Excerpt: It has furthermore been observed that CRL 40,293 is a well-tolerated substance.

[6] = tested on: cardio-vascular parameters; experiment: Cardio-vascular activity in anaesthetised dogs; format: in vivo; settings: intraduodenal 100 then 200 mg/kg
Experimental: Three anaesthetised dogs are used for this study. The product is administered intraduodenally as a gum suspension.
Two dogs with the thorax closed and respiring spontaneously are given CRL 40,293 at a dose of 100 mg/kg followed by 200 mg/kg, this second dose being administered 1 hour 30 minutes to 2 hours after the first.
One dog with the thorax opened is given 100 mg/kg, followed after 1 hour by 200 mg/kg, of CRL 40,293.
In these animals the effects of injections of noradrenalin, acetylcholine, tyramine, DMPP, histamine and serotonine were unchanged and the same is true of the effects of occlusion of the carotids and of stimulation of the central end and peripheral end of the vagus.

[7] = Clinical tests in man; format: in vivo; settings: man; gelatine-coated pills of 400 mg, 2 pills twice daily
Experimental: The clinical tests have made it possible to confirm the pharmacological tests. Thus, in man, CRL 40,293 (Example 23) in the form of gelatine-coated pills containing 400 mg of active ingredient administered at the rate of 2 such pills twice daily has given good results in the treatment of circulatory complaints and especially of lipid disturbances.
CRL 40,386 (Example 8) has been used in man for the treatment of hyperlipidaemia in the form of gelatine-coated pills each containing 300 mg of active ingredient at the rate of 2 to 6 such pills per day.

[8] = Reduction of lipids and cholesterol in rats treated orally; format: in vivo; settings: daily oral 10 mg/kg, 3-4 days

With `OCCOc1ccc(Oc2ccc(Cl)cc2)cc1` [CRL 40,293, 2-[4-(4-Chlorophenoxy)-phenoxy]ethanol] the Anti-aggregation action ([1]; 100 mg/kg per day for 3 days) was “+++”, the Anti-aggregation action ([1]; oral 50 mg/kg for 3 days) was “++” and the change in vivo at 50 mg/kg ([2]; read-out: Cholesterol (change)) was -40%. For the same molecule, the change in vivo at 50 mg/kg ([2]; read-out: Total lipids (change)) was -40%, the “hypo-lipidaemic and hypocholesterolaemic activity (in words)” value ([2]; oral 50 mg/kg) was “good hypo-lipidaemic and hypocholesterolaemic activity” and the LD50 [3] was 2050 mg/kg. For the same molecule, the LD-0 [4] was “greater than 600 mg/kg”, the “ulceration or inflammation of the stomach and of the duodenum” value ([5]; fasting rats, 1 g/kg through a probang, 8 hours after administration) was “no ulceration or inflammation of the stomach and of the duodenum is observed” and the “tolerance (in words)” value ([5]; rat, in vivo) was “well-tolerated”. For the same molecule, the “change of parameters: arterial pressure, pulse rate, left intra-ventricular pressure, dp/dt, vertebral and femoral arterial flow rates, respiration” value ([6]; closed thorax, 2 hours' observation) was “None of the parameters measured changed”, the “effects of noradrenalin, acetylcholine, tyramine, DMPP, histamine and serotonine injections, carotid occlusion and vagus stimulation” value ([6]; dogs) was “unchanged” and the “change of parameters: arterial pressure, pulse rate, left intraventricular pressure, dp/dt, aorta flow rate, work of left ventricle, coronary arterial flow rate” value ([6]; opened thorax, 2 hours' observation) was “None of the parameters measured changed”. The “treatment of circulatory complaints and especially of lipid disturbances” value [7] was “good results”, the decrease in cholesterol [8] was 20% and the “decrease in total lipids” value [8] was 20%.
